Laboratory results published in PMC7083851, “Extended pharmacodynamic responses observed upon PROTAC-mediated degradation of RIPK2” (Communications Biology, 2020).
“And” between values parts separate entries of the source, which are not always exact repeats. Equal entries are not always repeated.

Legend:
MDP-induced TNFα release = MDP-induced TNFα release in human whole blood; type: cell-based; details: inhibition of MDP-induced TNFα release
Experimental: Before treatment with compound or vehicle, THP1 cells, human and rat PBMCs were counted using Vi-Cell cell counter (Invitrogen) and adjusted to a final cell density of […] using complete growth medium. Cells or whole blood were treated with vehicle (0.1% DMSO) or fixed concentrations of compound up to 1 μM in half log unit increments and incubated for the time period indicated in the figure.
Where the assessment of cytokines was performed, L18-MDP was added to the cell culture media (1 μg/ml) or to the rat blood samples (100 ng/ml) and samples were incubated for up to 4 h. […]
Cytokine measurement assay: Cytokine levels were measured in rat plasma or rat PBMCs cell culture supernatants using rat V-Plex TNFα, in human plasma or human PBMCs cell culture supernatants with either TNFα tissue culture or 7-plex kit. Rat serum and tissues samples from the in vivo L18-MDP acute inflammation model were analyzed using the rat TNFα, Il-6 and IL-8 U-Plex kits. […] Levels of cytokines spontaneously released from human colon biopsies cell culture supernatants were measured using Human IL-1 beta/IL-1F2 DuoSet ELISA (Bio-techne), Human IL-6 ELISA (Immunotools) and Human TNF-alpha DuoSet ELISA (Bio-techne). […] The MSD plates were analyzed using the MSD sector imager 6000 plate reader and cytokines concentration (pg/ml) was obtained by using the MSD DISCOVERY WORKBENCH software version 4.0.12.1 […]

XIAP = biological target: T1, XIAP (Homo sapiens, UniProt P98170); experiment: XIAP levels in human PBMCs, 24 h, capillary immunoassay; type: cell-based; details: up to 1uM
T1 construct: endogenous in cells; host or cells: primary human PBMCs
Experimental: Where the assessment of cytokines was performed, L18-MDP was added to the cell culture media (1 μg/ml) or to the rat blood samples (100 ng/ml) and samples were incubated for up to 4 h. For human blood, 250 ng/ml MDP (Invivogen) was added following compound treatment and the samples were further incubated for 5 h. Samples were them spun down at 1000 g and the cell culture supernatant, plasma or serum were collected for cytokines assessment, while cell pellets were used for RIPK2 and/or cIAP1, cIAP2, and XIAP levels analysis via immunoblotting.
Simple Western immunoassay: Cell lysates were mixed with 5× concentrated master mix (Protein Simple) and denatured at 95 °C on a heat block for 5 min together with the provided ladder (Protein Simple). Antibodies were diluted in the provided buffer as following: anti-RIPK2 (1:10 or 1:50), anti-cIAP1(1:10), anti-cIAP2 (1:10), anti-XIAP (1:10), mouse anti-β-actin (Abcam - 1:1000), rabbit anti-β-actin (Abcam - 1:50) and anti-vinculin (1:100). […] All samples were analyzed using the associated Compass software 3.1.7. […]
Cell viability was assessed by using Cell Titer
Kit (Promega) according to the manufacturer’s instructions. Samples were analysed using […]

RIPK2 = biological target: T2, RIPK2 (Rattus norvegicus, UniProt G3V783); experiment: RIPK2 levels in colon of dosed rats (Western blot); type: in vivo; details: for RIPK2 level in colon (fig 5f): vehicle control 0.0136-0.0240
T2 construct: from tissue; host or cells: terminal colon samples of dosed rats
Experimental: Rat PK/PD studies: On arrival, all rats were housed in a plastic solid bottom cage in groups of 2–3 with access to food and water ad libitum and under a 12 h light–dark cycle. Male CD or Wistar Han rats (7–9 weeks old, Charles River UK Ltd.) were randomly allocated to treatment groups upon arrival. Female CD rats (7–8 weeks old on arrival, Charles River Ltd.) were placed into groups using a randomization schedule based on body weight prior to the study start. All animals were acclimatized for a minimum of one week prior to the experiment commencing.
Ex vivo stimulation of rat blood with L18-MDP for PD: PPD blood samples taken prior to PROTAC administration or at fixed timepoints post PROTAC administration through the course of the study, were treated ex vivo with 100 ng/mL L18-MDP (Invivogen) or vehicle (0.1% DMSO) and incubated for 4 h. Following centrifugation, plasma was collected for cytokines analysis as detailed in cytokines assay section. Additionally, RIPK2 levels were determined in PBMCs isolated from blood and where collected, in sampled colon tissue as described in the text.
For in vivo studies, RIPK2:tubulin ratios and cytokine levels from each individual experiment were analysed either using a One-way ANOVA with Dunnet’s post-test or a two way ANOVA using GraphPad Prism 5.0.4 to determine statistical significance with 95% confidence levels.

[1] = test system: spontaneous IL-1β, IL-6, and TNFα release; experiment: Spontaneous cytokine release (IL-1β, IL-6, TNFα) from Crohn's disease patient intestinal biopsies; type: cell-based, human; details: for IL-1b (Ctrl=DMSO = 100) / IL-6 (Ctrl=DMSO = 100) / TNFa (Ctrl=DMSO = 100): individual biopsies, fig 4e
Experimental: Colonic biopsies or tissues were obtained during endoscopy or via surgical resection from Crohn’s Disease (CD) or Ulcerative Colitis (UC) patients (St Bartholomew’s Hospital, London). All patients gave informed written consent. For surgical specimens, the mucosa was dissected away from the submucosa and cut into pieces of ~10–20 mg. […] The supernatants were collected for cytokine measurement as detailed in cytokines assay section while tissues were used to determine RIPK2 levels.
Cytokine measurement assay: Cytokine levels were measured in rat plasma or rat PBMCs cell culture supernatants using rat V-Plex TNFα, in human plasma or human PBMCs cell culture supernatants with either TNFα tissue culture or 7-plex kit. Rat serum and tissues samples from the in vivo L18-MDP acute inflammation model were analyzed using the rat TNFα, Il-6 and IL-8 U-Plex kits. All kits provided by Meso Scale Discovery (MSD). Levels of cytokines spontaneously released from human colon biopsies cell culture supernatants were measured using Human IL-1 beta/IL-1F2 DuoSet ELISA (Bio-techne), Human IL-6 ELISA (Immunotools) and Human TNF-alpha DuoSet ELISA (Bio-techne). All samples were processed accordingly to the manufacturer’s instructions. The MSD plates were analyzed using the MSD sector imager 6000 plate reader and cytokines concentration (pg/ml) was obtained by using the MSD DISCOVERY WORKBENCH software version 4.0.12.1

T2 sequence (G3V783 1-539): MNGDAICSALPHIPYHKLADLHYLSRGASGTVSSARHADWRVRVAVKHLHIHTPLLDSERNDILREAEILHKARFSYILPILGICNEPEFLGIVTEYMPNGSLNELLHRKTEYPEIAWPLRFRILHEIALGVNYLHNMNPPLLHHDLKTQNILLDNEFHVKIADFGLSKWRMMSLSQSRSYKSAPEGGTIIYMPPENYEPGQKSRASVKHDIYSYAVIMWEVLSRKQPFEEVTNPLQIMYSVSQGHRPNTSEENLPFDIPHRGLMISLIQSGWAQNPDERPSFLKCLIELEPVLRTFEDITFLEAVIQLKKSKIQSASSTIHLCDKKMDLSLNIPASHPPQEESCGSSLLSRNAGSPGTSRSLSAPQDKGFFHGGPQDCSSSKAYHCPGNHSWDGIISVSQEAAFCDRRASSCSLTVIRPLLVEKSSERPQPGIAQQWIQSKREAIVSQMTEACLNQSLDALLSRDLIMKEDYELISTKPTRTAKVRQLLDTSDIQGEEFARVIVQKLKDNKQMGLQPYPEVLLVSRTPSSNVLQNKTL
T1 sequence (P98170 whole entry): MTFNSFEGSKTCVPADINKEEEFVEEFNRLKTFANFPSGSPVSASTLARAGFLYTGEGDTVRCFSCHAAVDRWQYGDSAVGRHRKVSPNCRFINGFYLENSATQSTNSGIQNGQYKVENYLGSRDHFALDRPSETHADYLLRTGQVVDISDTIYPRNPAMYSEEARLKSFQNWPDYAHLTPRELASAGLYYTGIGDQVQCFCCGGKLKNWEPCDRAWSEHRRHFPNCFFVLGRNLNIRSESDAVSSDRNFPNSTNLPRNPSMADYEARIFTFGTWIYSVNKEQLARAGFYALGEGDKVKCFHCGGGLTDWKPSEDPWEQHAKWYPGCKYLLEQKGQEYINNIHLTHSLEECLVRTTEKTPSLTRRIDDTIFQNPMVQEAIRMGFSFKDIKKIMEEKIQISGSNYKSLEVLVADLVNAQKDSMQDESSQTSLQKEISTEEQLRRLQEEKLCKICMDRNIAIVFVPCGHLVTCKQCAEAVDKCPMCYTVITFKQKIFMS

SMILES	hWB MDP pIC50 ± SEM (n) (MDP-induced TNFα release)	change in XIAP protein levels, in words (XIAP)	RIPK2 level in colon (fig 5f) (RIPK2; 0.05 mg/kg, individual rats 1-4)	RIPK2 level in colon (fig 5f) (RIPK2; 0.5 mg/kg, individual rats 5-8)	RIPK2 in terminal colon samples, in words (RIPK2; rat, 0.05 and 0.5 mg/kg QD SC, Western blot)	IC50 ([1]; Homo sapiens, 24 h, read-out: IC50 inhibition of spontaneous cytokine release)	IL-1b (Ctrl=DMSO = 100) ([1]; compound concentration 0.05 nM)	IL-6 (Ctrl=DMSO = 100) ([1]; compound concentration 0.05 nM)	TNFa (Ctrl=DMSO = 100) ([1]; compound concentration 0.05 nM)	IL-1b (Ctrl=DMSO = 100) ([1]; compound concentration 0.5 nM)	IL-6 (Ctrl=DMSO = 100) ([1]; compound concentration 0.5 nM)	TNFa (Ctrl=DMSO = 100) ([1]; compound concentration 0.5 nM)	IL-1b (Ctrl=DMSO = 100) ([1]; compound concentration 5 nM)	IL-6 (Ctrl=DMSO = 100) ([1]; compound concentration 5 nM)	TNFa (Ctrl=DMSO = 100) ([1]; compound concentration 5 nM)	IL-1b (Ctrl=DMSO = 100) ([1]; compound concentration 50 nM)	IL-6 (Ctrl=DMSO = 100) ([1]; compound concentration 50 nM)	TNFa (Ctrl=DMSO = 100) ([1]; compound concentration 50 nM)
CN[C@@H](C)C(=O)N[C@H](C(=O)N1CCC[C@H]1c1nc(C(=O)c2ccc(F)cc2)cs1)C1CCN(C(=O)c2cnc(N3CCN(CCOc4cc5ncnc(Nc6n[nH]c(C)c6C)c5cc4S(=O)(=O)C(C)(C)C)CC3)nc2)CC1 [PROTAC 4]	7.7 ± 0.05 (4)																	
CN[C@@H](C)C(=O)N[C@H](C(=O)N1C[C@@H](NC(=O)c2cnc(N3CCN(CCCOc4cc5ncnc(Nc6n[nH]c(C)c6C)c5cc4S(=O)(=O)C(C)(C)C)CC3)cn2)C[C@H]1C(=O)Nc1c(F)cccc1F)C(C)(C)C [PROTAC 6]		no change in protein levels	0.0091 and 0.0088 and 0.0071 and 0.0105	0.0034 and 0.0025 and 0.0038 and 0.0043	significant degradation of RIPK2	1 to 3 nM	94 and 86 and 97	105 and 101 and 86	90 and 96	59 and 61 and 39 and 57	98 and 80 and 79 and 97 and 84 and 33	87 (2×) and 88 and 52	50 and 72 and 71 and 12 and 58 and 31 and 5 and 56 and 44 and 41 (2×) and 49 and 74 and 81	56 and 35 and 85 (2×) and 14 (2×) and 49 and 48 and 89 and 101 and 72 and 66 and 70 and 53	38 and 23 and 69 (2×) and 35 (2×) and 42 and 24 and 87 and 58 and 34 and 11 and 66 and 31 and 41	12 (2×) and 26 and 66 and 31 and 32 and 4 and 29 and 9 and 18 and 69 and 5 and 52 and 14	35 and 29 and 12 (2×) and 31 (2×) and 16 (2×) and 75 and 44 and 24 and 50 and 63 and 23 and 57	42 and 16 and 50 (2×) and 37 (2×) and 0 and 30 (2×) and 24 and 78 and 25 and 60 and 34 and 59
